What was measured:
[1] = target: T1, h-GABA-A α5β3γ2 (Homo sapiens, UniProt P18507+P31644); test: [3H]flumazenil competition binding assay on membranes of HEK293 cells expressing GABAA receptors; conditions: Table 1; displacement of [3H]-Flumazenil (0.5 nM), HEK293 cells expressing human receptors, means of two determinations
T1 construct: expressed in transfected cells; host or cells: Xenopus laevis oocytes, micro-injected with subunit RNA
In short: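 Membranes from HEK293 cells transiently expressing human α5β3γ2 were incubated 1 h at 4 °C in Krebs-tris pH 7.5 with 0.5 nM [3H]flumazenil and test compound. Nonspecific binding was set with 10^−5 M diazepam. Bound radioactivity was filtered and counted. Ki is the mean of two determinations.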

[2] = target: T1, h-GABA-A α5β3γ2; test: Two-electrode voltage clamp electrophysiology in Xenopus oocytes expressing GABAA receptors (modulation of GABA EC20 current); format: cell-based; conditions: Table 1; for Efficacy (GABA) %: % modulation of GABA EC20 = 100*(Fold increase-1); for Fold increase h-GABA-A α5β3γ2 oocyte: Xenopus oocytes, GABA EC20, test compound at approximatively 30 fold its Ki
In short: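 Oocytes injected with α5β3γ2 subunit RNA, recorded 3-5 days later by two-electrode clamp at −80 mV, room temperature, pH 7.4. The compound, at ~30-fold its Ki, was co-applied during a second GABA EC20 pulse. Efficacy was the extremum of the point-by-point second/first current ratio, given as % modulation (100×(fold−1)); n≥3 oocytes.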

Row | Structure (SMILES) | Ki [1] | Efficacy (GABA) % [2] | Fold increase h-GABA-A α5β3γ2 oocyte [2]
1 | Cn1nnc(-c2ccc(Cl)cc2F)c1Cn1ncc(N2CC(Oc3ccc(Cl)nc3)C2)cc1=O [Example 52, 2-[[5-(4-chloro-2-fluoro-phenyl)-3-methyl-triazol-4-yl]methyl]-5-[3-[(6-chloro-3-pyridyl)oxy]azetidin-1-yl]pyridazin-3-one] | 4.1 nM | 55% | 1.55
2 | Cn1nnc(-c2ccc(Cl)cc2F)c1Cn1ncc(N2CC(OC(F)F)C2)cc1=O [Example 53, 2-((5-(4-chloro-2-fluoro-phenyl)-3-methyl-triazol-4-yl)methyl)-5-(3-(difluoromethoxy)azetidin-1-yl)pyridazin-3-one] | 5.4 nM | 69% | 1.69
3 | Cn1nnc(-c2ccc(Cl)cc2F)c1Cn1ncc(N2CC(OCC(F)F)C2)cc1=O [Example 54, 2-[[5-(4-chloro-2-fluoro-phenyl)-3-methyl-triazol-4-yl]methyl]-5-[3-(2,2-difluoro-ethoxy)azetidin-1-yl]pyridazin-3-one] | 6.4 nM | 82% | 1.82
4 | Cn1nnc(-c2ccc(Cl)cc2F)c1Cn1ncc(N2CC(Oc3ccnc(Cl)c3)C2)cc1=O [Example 55, 2-[[5-(4-chloro-2-fluoro-phenyl)-3-methyl-triazol-4-yl]methyl]-5-[3-[(2-chloro-4-pyridyl)oxy]azetidin-1-yl]pyridazin-3-one] | 5.8 nM | 111% | 2.11
5 | COc1ccc(-c2cnn(Cc3c(C)nnn3-c3ccc(Cl)cc3F)c(=O)c2)cc1 [Example 56, 2-((3-(4-chloro-2-fluoro-phenyl)-5-methyl-triazol-4-yl)methyl)-5-(4-methoxyphenyl)pyridazin-3-one] | 21.6 nM | 50% | 1.5
6 | Cc1nnn(-c2ccc(Cl)cc2F)c1Cn1ncc(-c2ccnc(C(F)(F)F)c2)cc1=O [Example 57, 2-((3-(4-chloro-2-fluoro-phenyl)-5-methyl-triazol-4-yl)methyl)-5-(2-(trifluoromethyl)-4-pyridyl)pyridazin-3-one] | 43 nM | 64% | 1.64
7 | C[C@@H]1CN(c2cnn(Cc3c(-c4ccc(F)cc4F)nnn3C)c(=O)c2)C[C@H](C)O1 [Example 58, 2-[[5-(2,4-difluorophenyl)-3-methyl-triazol-4-yl]methyl]-5-[(2R,6S)-2,6-dimethylmorpholin-4-yl]pyridazin-3-one] | 7 nM | 138% | 2.38
8 | Cn1nnc(-c2ccc(Cl)cc2)c1Cn1ncc(N2CC(OCC(F)(F)F)C2)cc1=O [Example 59, 2-[[5-(4-chlorophenyl)-3-methyl-triazol-4-yl]methyl]-5-[3-(2,2,2-trifluoro-ethoxy)azetidin-1-yl]pyridazin-3-one] | 37.1 nM | 81% | 1.81
9 | Cn1nnc(-c2ccc(Cl)cc2)c1Cn1ncc(N2CC(OCC(F)F)C2)cc1=O [Example 60, 2-[[5-(4-chlorophenyl)-3-methyl-triazol-4-yl]methyl]-5-[3-(2,2-difluoro-ethoxy)azetidin-1-yl]pyridazin-3-one] | 45 nM | 76% | 1.76
10 | COc1ccc(-c2cnn(Cc3c(-c4ccc(Cl)cc4F)nnn3C)c(=O)c2)cc1 [Example 61, 2-((5-(4-chloro-2-fluoro-phenyl)-3-methyl-triazol-4-yl)methyl)-5-(4-methoxyphenyl)pyridazin-3-one] | 2.6 nM | 52% | 1.52
11 | COc1ccc(-c2cnn(Cc3c(-c4ccc(Cl)cc4F)nnn3C)c(=O)c2)cn1 [Example 62, 2-((5-(4-chloro-2-fluoro-phenyl)-3-methyl-triazol-4-yl)methyl)-5-(6-methoxy-3-pyridyl)pyridazin-3-one] | 8.2 nM | 50% | 1.5
12 | COc1cc(-c2cnn(Cc3c(-c4ccc(Cl)cc4F)nnn3C)c(=O)c2)ccn1 [Example 63, 2-((5-(4-chloro-2-fluoro-phenyl)-3-methyl-triazol-4-yl)methyl)-5-(2-methoxy-4-pyridyl)pyridazin-3-one] | 2.2 nM | 42% | 1.42
13 | Cn1cc(-c2cnn(Cc3c(-c4ccc(Cl)cc4F)nnn3C)c(=O)c2)cn1 [Example 64, 2-((5-(4-chloro-2-fluoro-phenyl)-3-methyl-triazol-4-yl)methyl)-5-(1-methylpyrazol-4-yl)pyridazin-3-one] | 11.2 nM | 76% | 1.76
14 | Cc1nnn(-c2ccc(Cl)cc2F)c1Cn1ncc(-c2cnn(C3CC3)c2)cc1=O [Example 65, 2-((3-(4-chloro-2-fluoro-phenyl)-5-methyl-triazol-4-yl)methyl)-5-(1-cyclopropylpyrazol-4-yl)pyridazin-3-one] | 47.5 nM | 42% | 1.42
15 | CCOc1ncc(-c2cnn(Cc3c(-c4ccc(Cl)cc4F)nnn3C)c(=O)c2)cc1C [Example 66, 2-((5-(4-chloro-2-fluoro-phenyl)-3-methyl-triazol-4-yl)methyl)-5-(6-ethoxy-5-methyl-3-pyridyl)pyridazin-3-one] | 19 nM | 143% | 2.43
16 | Cn1nnc(-c2ccc(Cl)cc2F)c1Cn1ncc(-c2cnn(C3CC3)c2)cc1=O [Example 67, 2-((5-(4-chloro-2-fluoro-phenyl)-3-methyl-triazol-4-yl)methyl)-5-(1-cyclopropylpyrazol-4-yl)pyridazin-3-one] | 11 nM | 55% | 1.55
17 | COc1ncc(-c2cnn(Cc3c(C)nnn3-c3ccc(Cl)cc3F)c(=O)c2)cc1Cl [Example 68, 2-((3-(4-chloro-2-fluoro-phenyl)-5-methyl-triazol-4-yl)methyl)-5-(5-chloro-6-methoxy-3-pyridyl)pyridazin-3-one] | 32.2 nM | 130% | 2.3
18 | COc1ncc(-c2cnn(Cc3c(-c4ccc(Cl)cc4F)nnn3C)c(=O)c2)cc1Cl [Example 69, 2-((5-(4-chloro-2-fluoro-phenyl)-3-methyl-triazol-4-yl)methyl)-5-(5-chloro-6-methoxy-3-pyridyl)pyridazin-3-one] | 4.3 nM | 125% | 2.25
19 | CC(C)OC1CN(c2cnn(Cc3c(-c4ccc(C(F)(F)F)cc4F)nnn3C)c(=O)c2)C1 [Example 70, 2-[[5-[2-fluoro-4-(trifluoromethyl)phenyl]-3-methyl-triazol-4-yl]methyl]-5-(3-isopropoxyazetidin-1-yl)pyridazin-3-one] | 25 nM | 71% | 1.71
20 | Cn1nnc(-c2ccc(C(F)(F)F)cc2F)c1Cn1ncc(N2CC(OC(F)F)C2)cc1=O [Example 71, 5-[3-(difluoromethoxy)azetidin-1-yl]-2-[[5-[2-fluoro-4-(trifluoromethyl)phenyl]-3-methyl-triazol-4-yl]methyl]pyridazin-3-one] | 12.2 nM | 75% | 1.75
21 | CCOC1CN(c2cnn(Cc3c(-c4ccc(C(F)(F)F)cc4F)nnn3C)c(=O)c2)C1 [Example 72, 5-(3-ethoxyazetidin-1-yl)-2-[[5-[2-fluoro-4-(trifluoromethyl)phenyl]-3-methyl-triazol-4-yl]methyl]pyridazin-3-one] | 19.4 nM | 70% | 1.7
22 | Cn1nnc(-c2ccc(Cl)cc2F)c1Cn1ncc(N2CC(Oc3cnccn3)C2)cc1=O [Example 73, 2-[[5-(4-chloro-2-fluoro-phenyl)-3-methyl-triazol-4-yl]methyl]-5-(3-pyrazin-2-yloxyazetidin-1-yl)pyridazin-3-one] | 7.7 nM | 90% | 1.9
23 | Cn1nnc(-c2ccc(C(F)(F)F)cc2F)c1Cn1ncc(N2CC(OCC(F)(F)F)C2)cc1=O [Example 74, 2-[[5-[2-fluoro-4-(trifluoromethyl)phenyl]-3-methyl-triazol-4-yl]methyl]-5-[3-(2,2,2-trifluoro-ethoxy)azetidin-1-yl]pyridazin-3-one] | 11.8 nM | 86% | 1.86
24 | Cn1nnc(-c2ccc(C(F)(F)F)cc2F)c1Cn1ncc(N2CC3(CCCO3)C2)cc1=O [Example 75, 2-[[5-[2-fluoro-4-(trifluoromethyl)phenyl]-3-methyl-triazol-4-yl]methyl]-5-(5-oxa-2-azaspiro[3.4]octan-2-yl)pyridazin-3-one] | 23 nM | 73% | 1.73
25 | Cn1nnc(-c2ccc(C(F)(F)F)cc2F)c1Cn1ncc(N2CC(OCC(F)F)C2)cc1=O [Example 76, 5-[3-(2,2-difluoroethoxy)azetidin-1-yl]-2-[[5-[2-fluoro-4-(trifluoromethyl)phenyl]-3-methyl-triazol-4-yl]methyl]pyridazin-3-one] | 11.6 nM | 115% | 2.15
